As usually defined, the Kd is the free concentration of one partner at which half of the binding sites on the other are occupied at equilibrium, for simple one-to-one binding.

Kd and klim/Kd data for four compounds are collected here from paper PMC9136103 (The Journal of Biological Chemistry, 2022).

For test [1], the target named is T1, human ornithine aminotransferase (hOAT) (Homo sapiens, UniProt P04181).
T1 construct: gene OAT; t-hOAT expressed as MBP fusion, MBP tag removed
T1 sequence (P04181 26-439 limits assumed): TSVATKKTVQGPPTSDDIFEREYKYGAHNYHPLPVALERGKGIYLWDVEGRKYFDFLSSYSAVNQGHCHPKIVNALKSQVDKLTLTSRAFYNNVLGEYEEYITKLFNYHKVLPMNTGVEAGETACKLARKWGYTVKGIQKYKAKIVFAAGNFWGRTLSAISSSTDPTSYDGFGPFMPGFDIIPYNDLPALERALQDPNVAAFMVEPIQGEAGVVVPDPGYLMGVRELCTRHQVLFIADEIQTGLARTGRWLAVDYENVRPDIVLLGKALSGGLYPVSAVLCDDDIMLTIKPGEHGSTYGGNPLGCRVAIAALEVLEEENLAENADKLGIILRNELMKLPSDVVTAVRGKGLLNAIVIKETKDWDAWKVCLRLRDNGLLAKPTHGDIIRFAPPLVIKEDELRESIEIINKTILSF
The experiment in a line: crystal structure by soaking (~[…] Å); stopped-flow kinetics Kd. In kind it is biochemical.

Test [2] concerns the target T1, human ornithine aminotransferase (hOAT). Briefly: stopped-flow transient-state kinetics, purified enzyme (Kd not determined). The class given is biochemical.
The target is the same in test [3]. Briefly: crystal structure by soaking (~[…] Å); UV-Vis titration Kd. The class given is binding.
Test [4] shares this target. Briefly: stopped-flow transient-state kinetics, purified enzyme. In kind it is biochemical. To be noted: read-out: Dissociation constant (Kd).

SMILES strings stand for the structures.

Consider `NCCCCC(=O)O` [AVA, 5-aminovaleric acid], for which, in test [1], binding was characterised by a dissociation constant (Kd) of 735 ± 78 µM.

`NCC[C@H](N)C(=O)O` [DABA, L-2,4-diaminobutyric acid] had a klim/Kd in test [2] of 0.249 ± 0.006 M⁻¹ s⁻¹. Take `NCCCC(=O)O` [GABA, γ-aminobutyric acid]: in test [3], the affinity, expressed as Kd, was 110 ± 15 µM. With `NCCC[C@H](N)C(=O)O` [L-Orn, L-ornithine], the Kd in test [4] came out at 4700 ± 290 µM.
